Assay results as given in PMC9618981, “Impact of peptide permeation enhancer on tight junctions opening cellular mechanisms” (Biochemistry and Biophysics Reports, 2022).
Blank lines part the entries; values can stand above or below the molecule they belong to. Ends that are not written are not given here. Peptide text beside a SMILES is read from it. * marks the point of attachment. Myristoyl = CCCCCCCCCCCCCC(=O)*

Assays:
Caco-2 cells = assay: Quantitative proteomic analysis (DIA LC-MS/MS) of Caco-2 cells; format: cell-based, human; settings: Caco-2, 1 h
Experimental: For Western blot experiments, cells were seeded in 12-well plates (Merck, Schaffhausen, Switzerland) at a density of 50′000 cells/cm^2. For the proteomic experiments, the cells were seeded in T10 flasks (Merck, Schaffhausen, Switzerland) at the same initial seeding density. After 7 days and two washes with warm phosphate buffered saline (PBS, Thermofisher, Waltham, MA, USA), the conditions were applied for 1 h. Peptides were applied at a concentration between 20 and 100 μM. A chemical inhibitor of PKC ζ was also tested. The molecule 4f was used at a concentration of 10 μM in 0.1% DMSO as a positive control. All dilutions were done in 0.9% saline solution. After incubation, cells for Western blot experiments were lysed with RIPA buffer (Cell signalling, Danvers, MA, USA) containing protease and phosphatase inhibitors (Roche, Basel, Switzerland). After centrifugation to discard cell components, the samples were stored at −20 °C. Cells for proteomic analysis were detached with trypsin, washed 3 times with PBS and kept at −80 °C until analysis. Samples for proteomic analysis were produced in triplicate for each condition.
Cell pellets were resuspended in 100 μL of 0.1% RapiGest Surfactant (Waters, Milford, MA, USA) in 50 mM ammonium bicarbonate (AB). Samples were heated for 5 min at 100 °C. Lysis was performed by sonication (6 × 30 s) at 70% amplitude and 0.5 pulse. Samples were kept 30 s on ice between each cycle of sonication. Samples were centrifuged for 10 min at 14′000×g. Protein concentration was measured by Bradford assay and 25 μg of each sample was subjected to protein digestion as follows: the sample volume was adjusted to 100 μL with 0.1% RapiGest in 50 mM AB. 2 μL of 50 mM dithioerythritol (DTE) were added and the reduction was carried out at 60 °C for 1h. Alkylation was performed by adding 2 μL of iodoacetamide 400 mM during 1 h at room temperature in the dark. Overnight digestion was performed at 37 °C with 5 μL of freshly prepared trypsin (Promega AG, Dübendorf, Switzerland) in 50 mM AB at a concentration of 0.2 μg/μL. To remove RapiGest, samples were acidified with trifluoroacetic acid (TFA), heated at 37 °C for 45 min and centrifuged 10 min at 17′000×g. Supernatants were then desalted with a C18 microspin column (Harvard Apparatus, Holliston, MA, USA) according to the manufacturer's instructions, completely dried under speed-vacuum and stored at −20 °C.
Samples were diluted at 1 μg/μL with loading buffer (5% CH3CN, 0.1% FA). Biognosys iRT peptides were added to each sample and 2 μg of peptides were injected onto the column. LC-ESI-MS/MS was performed on an Orbitrap Fusion Lumos Tribrid mass spectrometer (Thermo Scientific, San Jose, CA, USA) equipped with an Easy nLC1200 liquid chromatography system (Thermo Scientific, San Jose, CA, USA). Peptides were trapped on an Acclaim pepmap100, C18, 3 μm, 75 μm × 20 mm nano trap-column (Thermofisher) and separated on a 75 μm × 500 mm, C18 ReproSil-Pur (Dr. Maisch GmbH, Ammerbuch, Germany), 1.9 μm, 100 Å, custom-made column. The analytical separation was run for 135 min using a gradient of H2O/FA 99.9%/0.1% (solvent A) and CH3CN/H2O/FA 80.0%/19.9%/0.1% (solvent B). The gradient was run from 8% B to 28% B in 110 min, then to 42% B in 25 min, then to 95%B in 5 min with a final stay of 20 min at 95% B. Flow rate was of 250 nL/min a total run time was of 160 min. Data-Independent Acquisition (DIA) was performed with MS1 full scan at a resolution of 60,000 (FWHM) followed by 30 DIA MS2 scan with fix windows. MS1 was performed in the Orbitrap with an automatic gain control (AGC) target of 1 × 10^6, a maximum injection time of 50 ms and a scan range from 400 to 1240 m/z. DIA MS2 was performed in the Orbitrap using higher-energy collisional dissociation (HCD) at 30%. Isolation window was set to 28 m/z with an AGC target of 1 × 10^6 and a maximum injection time of 54 ms. […]

[1] = test system: ZO-1 expression in Caco-2 cells; assay: Immunoblot of total protein extracts from Caco-2 cells, ZO-1; format: cell-based, human; settings: Caco-2, 1 h, peptides 50 μM, In 10 μM, normalised to actin
Experimental: (§1) Caco-2 cells (ATCC, Manassas, VA, USA) were cultured in T75 flasks (Merck, Schaffhausen, Switzerland). The cells were incubated at 37 °C and a humidified atmosphere containing 5% of CO2. The medium containing 10% fetal bovine serum (FBS, Thermofisher, Waltham, MA, USA) was changed every 2–3 days. The Caco-2 cells were passaged every 5 days. The passage numbers were between 33 and 36.
(§2) For Western blot experiments, cells were seeded in 12-well plates (Merck, Schaffhausen, Switzerland) at a density of 50′000 cells/cm^2. For the proteomic experiments, the cells were seeded in T10 flasks (Merck, Schaffhausen, Switzerland) at the same initial seeding density. After 7 days and two washes with warm phosphate buffered saline (PBS, Thermofisher, Waltham, MA, USA), the conditions were applied for 1 h. Peptides were applied at a concentration between 20 and 100 μM. A chemical inhibitor of PKC ζ was also tested. The molecule 4f was used at a concentration of 10 μM in 0.1% DMSO as a positive control. […]
(§3) 50 μg cell extracts and p-threonine proteins were separated by SDS-polyacrylamide gel electrophoresis (4–15%) (Bio-Rad, Hercules, CA, USA) and transferred to nitrocellulose membrane. […] These primary antibodies were then recognized by anti-mouse and anti-rabbit antibodies (Li-Cor Biosciences, Lincoln, NE, USA) and detected by Odyssey® imaging system (Li-Cor Biosciences). […]

[2] = test system: occludin expression in Caco-2 cells; assay: Immunoblot of total protein extracts from Caco-2 cells, occludin; format: cell-based, human; settings: Caco-2, 1 h, peptides 50 μM, In 10 μM
Experimental: as §1, §2, §3

[3] = previous studies; cited from earlier work
Text: Previous studies have shown that ZIP is not specifically and competitively inhibiting PKC ζ phosphorylation of some TJ proteins (occludin and ZO-1). The structural similarities of the PS of the PKC family does explain this non-specificity. Therefore, L-R5 would also be competitive with other PKCs and would interfere with most intracellular mechanisms involving PKCs. […] Given the absence o ...

[4] = target: protein kinase C zeta (PKC ζ) (not stated (only the C-terminal fragment is called human)) (UniProt Q05513); assay: MST; PKC ζ labelled by RED-Tris-NTA on its His tag, fixed (20 nM with L-R5 at 0-4000 μM; 30 nM with occludin at 0-35000 nM); ligand in serial dilution; Tris buffer pH 7.4; hydrophilic capillaries; 20%, 40% and 80% MST power
[5] = target: protein kinase C zeta (PKC ζ) (not stated (only the C-terminal fragment is called human)) (UniProt Q05513); assay: MST; labelled PKC ζ fixed at 30 nM; occludin in serial dilution 0-11300 nM; L-R5 present as competitor at a fixed 1.25 mM; Tris buffer pH 7.4; hydrophilic capillaries
[6] = target: T1, PKC ζ-occludin interaction (Homo sapiens, UniProt Q16625); assay: Microscale thermophoresis (MST), interaction between PKC ζ and occludin, without and with L-R5 as competitor; format: binding; settings: labelled PKC ζ 30 nM, occludin as ligand 0-35 μM, no competitor, Tris buffer pH 7.4, n = 2
T1 construct: purchased Eurofins pharma (PKC ζ); occludin source not clearly printed (probably RayBiotech); host or cells: Sf21 insect cells (PKC ζ)
T1 sequence (Q16625 266-522 limits assumed): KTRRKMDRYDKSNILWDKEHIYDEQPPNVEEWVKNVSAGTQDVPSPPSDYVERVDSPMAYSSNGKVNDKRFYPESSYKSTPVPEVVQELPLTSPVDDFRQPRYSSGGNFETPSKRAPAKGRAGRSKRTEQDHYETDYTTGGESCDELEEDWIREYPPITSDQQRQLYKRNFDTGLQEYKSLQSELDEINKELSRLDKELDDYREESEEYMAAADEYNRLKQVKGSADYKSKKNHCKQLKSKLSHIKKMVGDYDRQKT
Experimental: The protein construct of PKC ζ active (recombinant enzyme expressed in Sf21 insect cells) was purchased from Eurofins pharma (Dundee, United Kingdom) and the recombinant human […] was purchased from RayBiotech (Peachtree Corners, GA, USA). Fluorescent labelling of both, PKC ζ and occludin was performed following the protocol of coupling the His-tag labelling kit RED-Tris-NTA 2nd generation (Nanotemper Technologies, Munich, Germany) to their respective histidine tail. The fluorescence of the tagged proteins was then measured with the monolith NT.115 microscale thermophoresis instrument (Nanotemper Technologies, Munich, Germany). An excitation LED of 100% was set for the Cap. Scan. The predicted optimal dilution was then calculated to obtain a final fluorescence signal of 100 Raw fluorescence [counts].
Hydrophilic capillaries were used for the different tests because the samples interacted with standard capillaries. […] The different solutions were analysed by MST at 20%, 40% and 80% MST power with a 100% LED intensity. […] The results and Kd values were analysed by MO.affinity analysis 3 software (Nanotemper Technologies, Munich, Germany).
Microscale thermophoresis is a method used to quantify the affinity between two molecules (e.g., proteins) by increasing the concentration of the ligand while keeping the concentration of the target fixed. […]

occludin = target: T2, occludin (UniProt Q16625 1-522); assay: MST; occludin labelled by RED-Tris-NTA on its His tag, fixed at 50 nM; L-R5 in serial dilution 0-25000 μM; Tris buffer pH 7.4; hydrophilic capillaries; 20%, 40% and 80% MST power; settings: both partners purified
T2 chain: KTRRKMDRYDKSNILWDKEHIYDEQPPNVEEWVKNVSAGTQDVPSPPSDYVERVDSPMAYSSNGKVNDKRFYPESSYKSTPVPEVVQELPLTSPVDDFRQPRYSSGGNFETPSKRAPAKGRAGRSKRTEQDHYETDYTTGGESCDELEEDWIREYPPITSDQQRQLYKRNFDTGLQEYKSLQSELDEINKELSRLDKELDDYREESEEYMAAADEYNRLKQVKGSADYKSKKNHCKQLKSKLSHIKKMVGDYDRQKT

Molecule: CC(C)(C)C1=NN(c2cccc(Cl)c2)C(c2ccc(F)c(O)c2)C1 (centres unmarked) [In, 5-(3-(tert-Butyl)-1-(3-chlorophenyl)-4,5-dihydro-1H-pyrazol-5-yl)-2-fluorophenol]
- number of downregulated proteins versus control (log 2 (FC) < 0) (Caco-2 cells; L-R5 50 μM or In 10 μM, n = 3): 10 proteins
- number of upregulated proteins versus control (log 2 (FC) ≥ 0) (Caco-2 cells; L-R5 50 μM or In 10 μM, n = 3): 6 proteins
- number of significantly differentially expressed proteins versus control (Caco-2 cells; L-R5 50 μM or In 10 μM, p ≤ 0.05, n = 3): 16 proteins
- expression of E1A binding protein p300 (proteomics) (Caco-2 cells; L-R5 50 μM, In 10 μM, n = 3): significantly decreased
- expression of ZO-1 (proteomics) (Caco-2 cells; L-R5 50 μM, In 10 μM, n = 3): no impact
- expression of occludin (proteomics) (Caco-2 cells; L-R5 50 μM, In 10 μM, n = 3): no impact
- expression of ZO-1 (Western blot) [1]: no effect
- TJ protein expression (occludin and ZO-1, Western blot, Fig. 3) [2]: did not result in a significant decrease
- expression of occludin (Western blot) ([2]; normalised to actin): no effect

Molecule: CCCCCCCCCCCCCC(=O)N[C@@H](C)C(=O)N[C@@H](CCCNC(=N)N)C(=O)N[C@@H](CCCNC(=N)N)C(=O)N[C@@H](Cc1c[nH]c2ccccc12)C(=O)N[C@@H](CCCNC(=N)N)C(=O)O [L-R5] (Myristoyl-ARRWR-OH)
- in vitro cytotoxicity [3]: absence of cytotoxicity

- Kd [4]: 617 nM
- Kd [5]: 2160 nM
Molecule: occludin (from UniProt Q16625 1-522) (natural protein)

- Kd [6]: 617 nM
B1: occludin: tight junction protein, His-tagged recombinant, used as ligand and as labelled target in MST (protein, UniProt Q16625 1-522, looked up)
Occludin: MSSRPLESPPPYRPDEFKPNHYAPSNDIYGGEMHVRPMLSQPAYSFYPEDEILHFYKWTSPPGVIRILSMLIIVMCIAIFACVASTLAWDRGYGTSLLGGSVGYPYGGSGFGSYGSGYGYGYGYGYGYGGYTDPRAAKGFMLAMAAFCFIAALVIFVTSVIRSEMSRTRRYYLSVIIVSAILGIMVFIATIVYIMGVNPTAQSSGSLYGSQIYALCNQFYTPAATGLYVDQYLYHYCVVDPQEAIAIVLGFMIIVAFALIIFFAVKTRRKMDRYDKSNILWDKEHIYDEQPPNVEEWVKNVSAGTQDVPSPPSDYVERVDSPMAYSSNGKVNDKRFYPESSYKSTPVPEVVQELPLTSPVDDFRQPRYSSGGNFETPSKRAPAKGRAGRSKRTEQDHYETDYTTGGESCDELEEDWIREYPPITSDQQRQLYKRNFDTGLQEYKSLQSELDEINKELSRLDKELDDYREESEEYMAAADEYNRLKQVKGSADYKSKKNHCKQLKSKLSHIKKMVGDYDRQKT
modifications: His tag
notes: tight junction protein, His-tagged recombinant, used as ligand and as labelled target in MST

- Kd (occludin): 606000 nM
B2: L-R5 (myr-ARRWR), myristoylated pentapeptide (peptide)
peptide: Myristoyl-ARRWR
notes: also called L-R5 peptide; source: synthetic peptide, obtained from Bachem AG
